Results: publication PMC10893631, “Receptor-based pharmacophore modeling, molecular docking, synthesis and biological evaluation of novel VEGFR-2, FGFR-1, and BRAF multi-kinase inhibitors” (BMC Chemistry, 2024)

Columns and labels:
Assay in all cases: NCI SRB growth inhibition (single dose 10 µM / five-dose)
Format in all cases: cell-based, human
SN12C = details: Homo sapiens; for GI50: SN12C, Renal cancer, five-dose
Procedure, shortened: (§1)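 SRB protein stain of fixed cells; compounds tested at one dose (10 µM) or five serial dilutions (10-fold or ½ log), diluted from DMSO stock. Cells plated 24 h before dosing, with a time-zero plate fixed in TCA. Percent growth derived from Tz, control and test absorbances; TGI taken where Ti = Tz.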

M14 = details: Homo sapiens; for inhibition at 10 µM: M14 (Melanoma), read-out: GI%; for GI50: M14, Melanoma, five-dose
Procedure, shortened: as §1

SW-620 = details: Homo sapiens; for inhibition at 10 µM: SW-620 (Colon cancer), read-out: GI%; for GI50: SW-620, Colon cancer, five-dose
Procedure, shortened: as §1

SNB-19 = details: Homo sapiens; for inhibition at 10 µM: SNB-19 (CNS cancer), read-out: GI%; for GI50: SNB-19, CNS cancer, five-dose
Procedure, shortened: as §1

MCF7 = details: Homo sapiens; for inhibition at 10 µM: MCF7 (Breast cancer), read-out: GI%; for GI50: MCF7, Breast cancer, five-dose
Procedure, shortened: as §1

NCI-H23 = details: Homo sapiens; for inhibition at 10 µM: NCI-H23 (Non-small cell lung cancer), read-out: GI%; for GI50: NCI-H23, Non-small cell lung cancer, five-dose
Procedure, shortened: as §1

NCI-H226 = details: Homo sapiens; for inhibition at 10 µM: NCI-H226 (Non-small cell lung cancer), read-out: GI%; for GI50: NCI-H226, Non-small cell lung cancer, five-dose
Procedure, shortened: as §1

OVCAR-5 = details: Homo sapiens; for inhibition at 10 µM: OVCAR-5 (Ovarian cancer), read-out: GI%; for GI50: OVCAR-5, Ovarian cancer, five-dose
Procedure, shortened: as §1

PC-3 = details: Homo sapiens; for inhibition at 10 µM: PC-3 (Prostate cancer), read-out: GI%
Procedure, shortened: as §1

NCI-H522 = details: Homo sapiens; for inhibition at 10 µM: NCI-H522 (Non-small cell lung cancer), read-out: GI%; for GI50: NCI-H522, Non-small cell lung cancer, five-dose
Procedure, shortened: as §1

SR = details: Homo sapiens; for inhibition at 10 µM: SR (Leukemia), read-out: GI%; for GI50: SR, Leukemia, five-dose
Procedure, shortened: as §1

OVCAR-3 = details: Homo sapiens; for inhibition at 10 µM: OVCAR-3 (Ovarian cancer), read-out: GI%; for GI50: OVCAR-3, Ovarian cancer, five-dose
Procedure, shortened: as §1

SF-268 = details: Homo sapiens; for inhibition at 10 µM: SF-268 (CNS cancer), read-out: GI%; for GI50: SF-268, CNS cancer, five-dose
Procedure, shortened: as §1

TK-10 = details: Homo sapiens; for inhibition at 10 µM: TK-10 (Renal cancer), read-out: GI%; for GI50: TK-10, Renal cancer, five-dose
Procedure, shortened: as §1

HOP-92 = details: Homo sapiens; for inhibition at 10 µM: HOP-92 (Non-small cell lung cancer), read-out: GI%
Procedure, shortened: as §1

UACC-62 = details: Homo sapiens; for inhibition at 10 µM: UACC-62 (Melanoma), read-out: GI%; for GI50: UACC-62, Melanoma, five-dose
Procedure, shortened: as §1

HOP-62 = details: Homo sapiens; for GI50: HOP-62, Non-small cell lung cancer, five-dose
Procedure, shortened: as §1

MOLT-4 = details: Homo sapiens; for inhibition at 10 µM: MOLT-4 (Leukemia), read-out: GI%; for GI50: MOLT-4, Leukemia, five-dose
Procedure, shortened: as §1

HT29 = details: Homo sapiens, HT-29; for inhibition at 10 µM: HT29 (Colon cancer), read-out: GI%; for GI50: HT29, Colon cancer, five-dose
Procedure, shortened: as §1

HCC-2998 = details: Homo sapiens; for inhibition at 10 µM: HCC-2998 (Colon cancer), read-out: GI%; for GI50: HCC-2998, Colon cancer, five-dose
Procedure, shortened: as §1

SF-539 = details: Homo sapiens; for inhibition at 10 µM: SF-539 (CNS cancer), read-out: GI%; for GI50: SF-539, CNS cancer, five-dose
Procedure, shortened: as §1

U251 = details: Homo sapiens, U-251; for inhibition at 10 µM: U251 (CNS cancer), read-out: GI%; for GI50: U251, CNS cancer, five-dose
Procedure, shortened: as §1

EKVX = details: Homo sapiens; for inhibition at 10 µM: EKVX (Non-small cell lung cancer), read-out: GI%; for GI50: EKVX, Non-small cell lung cancer, five-dose
Procedure, shortened: as §1

RPMI-8226 = details: Homo sapiens; for inhibition at 10 µM: RPMI-8226 (Leukemia), read-out: GI%; for GI50: RPMI-8226, Leukemia, five-dose
Procedure, shortened: as §1

COc1ccc(-c2nc3cc(C(=O)NN=Cc4cccc(OC)c4O)ccc3[nH]2)cc1 [8k, N'-(2-Hydroxy-3-methoxybenzylidene)-2-(4-methoxyphenyl)-1H-benzo[d]imidazole-5-carbohydrazide]
GI50 (SN12C): 3810 nM | inhibition at 10 µM (M14): 91% | GI50 (M14): 2810 nM | inhibition at 10 µM (SW-620): 98.8% | GI50 (SW-620): 4350 nM | inhibition at 10 µM (SNB-19): > 100% | GI50 (SNB-19): 3330 nM | inhibition at 10 µM (MCF7): > 100% | GI50 (MCF7): 1720 nM | inhibition at 10 µM (NCI-H23): > 100% | GI50 (NCI-H23): 2140 nM | inhibition at 10 µM (NCI-H226): 82.2% | GI50 (NCI-H226): 3140 nM | inhibition at 10 µM (OVCAR-5): 69.5% | GI50 (OVCAR-5): 7720 nM | inhibition at 10 µM (PC-3): 87.9% | inhibition at 10 µM (NCI-H522): > 100% | GI50 (NCI-H522): 2980 nM | inhibition at 10 µM (SR): > 100% | GI50 (SR): 2060 nM | inhibition at 10 µM (OVCAR-3): > 100% | GI50 (OVCAR-3): 1250 nM | inhibition at 10 µM (SF-268): > 100% | GI50 (SF-268): 2160 nM | inhibition at 10 µM (TK-10): 40% | GI50 (TK-10): > 100000 nM | inhibition at 10 µM (HOP-92): 70.4% | inhibition at 10 µM (UACC-62): 98% | GI50 (UACC-62): 2780 nM | inhibition at 10 µM (HOP-62; HOP-62 (Non-small cell lung cancer), 10 µM, read-out: GI%): > 100% | GI50 (HOP-62): 3110 nM | inhibition at 10 µM (MOLT-4): > 100% | GI50 (MOLT-4): 3800 nM | inhibition at 10 µM (HT29): > 100% | GI50 (HT29): 3670 nM | inhibition at 10 µM (HCC-2998): > 100% | GI50 (HCC-2998): 2330 nM | inhibition at 10 µM (SF-539): > 100% | GI50 (SF-539): 2800 nM | inhibition at 10 µM (U251): 97.3% | GI50 (U251): 2170 nM | inhibition at 10 µM (EKVX): 98.1% | GI50 (EKVX): 2300 nM | inhibition at 10 µM (RPMI-8226): > 100% | GI50 (RPMI-8226): 2800 nM

COc1cccc(C=NNC(=O)c2ccc3[nH]c(-c4ccccc4)nc3c2)c1O [8d, N'-(2-hydroxy-3-methoxybenzylidene)-2-phenyl-1H-benzo[d]imidazole-5-carbohydrazide]
inhibition at 10 µM (SN12C; SN12C (Renal cancer), 10 µM, read-out: GI%): 91.5% | GI50 (SN12C): 2080 nM | inhibition at 10 µM (M14): > 100% | GI50 (M14): 1570 nM | inhibition at 10 µM (SW-620): 70.8% | GI50 (SW-620): 3770 nM | inhibition at 10 µM (SNB-19): 90.4% | GI50 (SNB-19): 2410 nM | inhibition at 10 µM (MCF7): 98.1% | GI50 (MCF7): 1060 nM | inhibition at 10 µM (NCI-H23): > 100% | GI50 (NCI-H23): 1870 nM | inhibition at 10 µM (NCI-H226): > 100% | GI50 (NCI-H226): 530 nM | inhibition at 10 µM (OVCAR-5): 63.2% | GI50 (OVCAR-5): 2770 nM | inhibition at 10 µM (PC-3): 82.2% | GI50 (PC-3; PC-3, Prostate cancer, five-dose): 2710 nM | inhibition at 10 µM (NCI-H522): > 100% | GI50 (NCI-H522): 1970 nM | inhibition at 10 µM (SR): 77% | GI50 (SR): 1800 nM | inhibition at 10 µM (OVCAR-3): > 100% | GI50 (OVCAR-3): 420 nM | inhibition at 10 µM (SF-268): 99% | GI50 (SF-268): 1760 nM | inhibition at 10 µM (TK-10): 50.6% | GI50 (TK-10): 4780 nM | inhibition at 10 µM (HOP-92): 68.4% | GI50 (HOP-92; HOP-92, Non-small cell lung cancer, five-dose): 1580 nM | inhibition at 10 µM (UACC-62): 99.5% | GI50 (UACC-62): 1220 nM | GI50 (HOP-62): 1650 nM | inhibition at 10 µM (MOLT-4): 65.8% | GI50 (MOLT-4): 2060 nM | inhibition at 10 µM (HT29): 84.5% | GI50 (HT29): 3410 nM | inhibition at 10 µM (HCC-2998): 98.5% | GI50 (HCC-2998): 1790 nM | inhibition at 10 µM (SF-539): > 100% | GI50 (SF-539): 1310 nM | inhibition at 10 µM (U251): 99.9% | GI50 (U251): 760 nM | inhibition at 10 µM (EKVX): 87.6% | GI50 (EKVX): 1860 nM | inhibition at 10 µM (RPMI-8226): 98.5% | GI50 (RPMI-8226): 1860 nM
